The text below walks through data of article PMC7576482, “Inhibitory Activity of Quercetin 3-O-Arabinofuranoside and 2-Oxopomolic Acid Derived from Malus domestica on Soluble Epoxide Hydrolase” (Molecules, 2020).

The target in series [1] is T1, soluble epoxide hydrolase (sEH) (Homo sapiens, UniProt P34913).
T1 construct: purchased Cayman (Ann Arbor, MI, USA) 10011669
T1 sequence (P34913 1-555): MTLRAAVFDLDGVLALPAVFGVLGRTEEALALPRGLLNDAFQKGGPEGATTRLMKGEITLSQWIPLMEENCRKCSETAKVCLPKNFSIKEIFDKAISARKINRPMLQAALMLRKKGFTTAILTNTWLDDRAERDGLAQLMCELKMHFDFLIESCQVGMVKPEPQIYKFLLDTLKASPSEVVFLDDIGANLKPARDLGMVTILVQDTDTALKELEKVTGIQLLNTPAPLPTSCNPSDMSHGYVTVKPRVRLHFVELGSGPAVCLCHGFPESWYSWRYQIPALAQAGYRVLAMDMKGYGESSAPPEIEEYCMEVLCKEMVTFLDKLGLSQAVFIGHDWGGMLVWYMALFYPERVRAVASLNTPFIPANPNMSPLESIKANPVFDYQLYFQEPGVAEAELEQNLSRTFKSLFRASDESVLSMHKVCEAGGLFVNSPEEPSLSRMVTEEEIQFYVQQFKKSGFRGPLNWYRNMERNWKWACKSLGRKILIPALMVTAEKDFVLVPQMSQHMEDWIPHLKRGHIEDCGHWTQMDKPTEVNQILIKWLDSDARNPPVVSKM
Kind of series: sEH assay (PHOME substrate, fluorescence). In kind it is biochemical. To be noted: triplicated experiments; 37 °C, pH 7.0, PHOME substrate; read-out: IC50 Value, inhibitory activity on sEH. Here is the method: The inhibitory activity of each concentration of compound was calculated based on the difference in enzyme products with and without the presence of the compound using Equation (1). […] To calculate the half-maximal inhibitory concentration of the inhibitors (IC50), inhibition rate values were fitted using Equation (2).
(§1) The assays were carried out at 37 °C in 0.025-M bis-tris-HCL buffer, pH 7.0, containing 0.1% Bovine Serum Albumin B. PHOME (~2.6 μM) was used as a substrate. The final volume of tests was […] in ~10 ng/mL sEH. The products were monitored at 330 nm of excitation and 465 nm emission for 40 min.
The inhibition rate was calculated according to the following equations:Inhibition effect rate (%) = [(ΔC − ΔS)/ΔC] × 100(1) where ΔC and ΔS represent the gap of control and inhibitor during reaction, respectively. y = y0 + [(a × x)/(b + x)](2) where “y0” is the point on the axis of ordinates, “a” denotes the difference between the maximum and minimum values, and “b” refers to the “x” value at 50%.

Series [2] deals with T1, soluble epoxide hydrolase (sEH). Kind of series: sEH enzyme kinetic study (Lineweaver-Burk and Dixon plots). In kind it is biochemical. Particulars: for Ki: Dixon plots, read-out: ki (inhibition constant); for Binding Mode: Lineweaver-Burk plots. Here is the method:
The enzyme kinetic study was performed to find the binding position of the inhibitor into sEH. The initial velocity (v0) for the three different concentrations of inhibitors was calculated relative to the substrate concentrations (1.1, 1.5, 2.2, 3.1, 6.2, and 12.5 μM). The inverse of these concentrations and v0 values were used to construct Lineweaver-Burk plots.
As presented in Figure 2F–I and Table 1, the inhibition constant (ki) values were calculated by Dixon plots. Inhibitors 1–4 were calculated to be ki values ranging from 2.9 ± 0.8 μM to […]. Among them, inhibitor 4 had the strongest ki value of 2.9 ± 0.8 μM.
as §1

On the set-up of series [3]: method as in PMID 19794443. To be noted: cited from earlier work.

The structures appear in SMILES notation. Several values for one entry are separate records, joined by “and”; a condition that tells them apart may be missing. Equal entries are not always repeated.

As to `O=c1c(OC2O[C@H](CO)[C@@H](O)[C@@H]2O)c(-c2ccc(O)c(O)c2)oc2cc(O)cc(O)c12` (stereo in doubt) [Compound 1, quercetin 3-O-arabinofuranoside], the IC50 (commonly the concentration needed to halve the response being measured) in series [1] is < 50 µM and 39.3 µM. In series [2], the Ki (usually a measure of affinity in units of concentration, obtained from inhibition or displacement) was 39.5 µM and the “Binding Mode” value is reported as “Mixed”.

As for `O=C(O)CCCCCCCCCCCNC(=O)NC12CC3CC(CC(C3)C1)C2` [AUDA, 12-(3-adamantan-1-yl-ureido)dodecanoic acid], in series [3], the solubility result is “low solubility”.

In the case of `C[C@H]1[C@H](C)CC[C@]2(C(=O)O)CC[C@]3(C)C(=CC[C@@H]4[C@@]5(C)CC[C@H](O)C(C)(C)[C@@H]5CC[C@]43C)[C@H]12` [Compound 2, ursolic acid], the IC50 in series [1] amounted to 84.5 ± 9.5 µM. Further, in series [2], the Ki is 38.5 µM and the “Binding Mode” value is listed as “Noncompetitive”.

Regarding `C[C@H]1[C@H](C)CC[C@]2(C(=O)O)CC[C@]3(C)C(=CC[C@@H]4[C@@]5(C)C[C@@H](O)[C@H](O)C(C)(C)[C@@H]5CC[C@]43C)[C@H]12` [Compound 3, corosolic acid], the IC50 in series [1] is 51.3 ± 4.9 µM. Further, in series [2], the Ki is 34.6 µM and the “Binding Mode” value is listed as “Noncompetitive”.

`C[C@@H]1CC[C@]2(C(=O)O)CC[C@]3(C)C(=CC[C@@H]4[C@@]5(C)CC(=O)[C@H](O)C(C)(C)[C@@H]5CC[C@]43C)[C@@H]2[C@]1(C)O` [Compound 4, 2-oxopomolic acid]: the IC50 in series [1] is < 50 µM and 11.4 µM. For the same compound, in series [2], the inhibitory constant (Ki) turned out to be 2.9 µM and the “Binding Mode” value is “Noncompetitive”.
